Data as given in article PMC3513969 (Evidence-based Complementary and Alternative Medicine : eCAM, 2012).

Legend:
[1] = Single dose escalation and multiple dosing pharmacokinetic study of LipoCol Forte; conditions: for CL/F / AUC(0-t) / AUC(0-inf) / Cmax / MRT / half-life / Tmax / Vd/F: fed, mean ± SD, n = 14; for AUC(0-t) / AUC(0-inf) / Cmax / MRT / half-life / Tmax / Vd/F: human, plasma, oral; for AUC(0-t): AUC0–12, healthy subjects; for AUC(0-inf): AUC0–inf; for half-life: T1/2, healthy subjects
Protocol: A high fat breakfast (including two eggs fried in butter, two strips of bacon, two slices of toast with butter, four ounces of hash brown potatoes, and eight ounces of whole milk) was provided 30 min before dosing. All doses were administered with 240 mL of water. […] A high fat breakfast or dinner was served 30 min before dosing. One capsule was administered with 240 mL of water. […] Within 30 min of collection, the samples were centrifuged at 2,600 g for 10 minutes at 4°C and the plasma transferred to labeled polypropylene tubes containing 50 μL of 17% phosphoric acid and stored at −80°C until analysis.
The pharmacokinetics were characterized, when appropriate, by the peak concentration in the plasma (C max⁡), time to reach the peak concentration (T max⁡), area under the plasma concentration versus time curve from time zero to the time of the last quantifiable concentration (AUC0−t), AUC from time zero to the time extrapolated to infinity (AUC0−inf⁡), half-life (T 1/2), mean residence time (MRT), apparent clearance (CL/F), and apparent volume of distribution (V d/F).

CYP2D6 = target: T1, CYP2D6 (Homo sapiens, UniProt P10635); test: Inhibition of CYP2D6 activity in human liver microsomes (dextrorphan/dextromethorphan ratio); type: biochemical
T1 construct: Human liver microsomes (UltraPool HLM 150) were purchased from BD Biosciences; tissue BD Biosciences UltraPool HLM 150; host or cells: pooled human liver microsomes

CYP2B6 = target: T2, CYP2B6 (Homo sapiens, UniProt P20813); test: Inhibition of CYP2B6 activity in human liver microsomes (hydroxybupropion/bupropion ratio); type: biochemical
T2 construct: Human liver microsomes (UltraPool HLM 150) were purchased from BD Biosciences; tissue BD Biosciences UltraPool HLM 150; host or cells: pooled human liver microsomes
T2 sequence (P20813 1-491): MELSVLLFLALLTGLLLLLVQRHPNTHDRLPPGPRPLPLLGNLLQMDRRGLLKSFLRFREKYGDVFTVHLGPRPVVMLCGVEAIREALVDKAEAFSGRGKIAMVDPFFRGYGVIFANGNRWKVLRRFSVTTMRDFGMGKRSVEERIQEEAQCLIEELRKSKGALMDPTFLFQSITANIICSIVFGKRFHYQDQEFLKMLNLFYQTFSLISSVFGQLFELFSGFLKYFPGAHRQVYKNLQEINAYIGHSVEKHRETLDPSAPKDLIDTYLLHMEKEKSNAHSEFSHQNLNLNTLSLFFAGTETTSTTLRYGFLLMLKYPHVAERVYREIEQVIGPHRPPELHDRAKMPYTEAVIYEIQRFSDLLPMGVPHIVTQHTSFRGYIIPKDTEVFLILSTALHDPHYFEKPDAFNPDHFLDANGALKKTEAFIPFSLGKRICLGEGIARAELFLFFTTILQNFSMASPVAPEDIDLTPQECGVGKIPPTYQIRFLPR

[2] = Pharmacokinetic interaction between gemfibrozil and LipoCol Forte; type: in vivo, human
Protocol: The volunteers were fasted overnight before dosing and a high fat breakfast or dinner was served 0.5 h after administration of gemfibrozil. […] Blood samples were prepared as described in the previous section (dose-escalation study).

CYP1A2 = target: T3, CYP1A2 (Homo sapiens, UniProt P05177); test: Inhibition of CYP1A2 activity in human liver microsomes (acetaminophen/phenacetin ratio); type: biochemical; conditions: extracts as lovastatin concentration, mean ± SEM, 3-4 preparations
T3 construct: Human liver microsomes (UltraPool HLM 150) were purchased from BD Biosciences; tissue BD Biosciences UltraPool HLM 150; host or cells: pooled human liver microsomes
T3 sequence (P05177 1-516): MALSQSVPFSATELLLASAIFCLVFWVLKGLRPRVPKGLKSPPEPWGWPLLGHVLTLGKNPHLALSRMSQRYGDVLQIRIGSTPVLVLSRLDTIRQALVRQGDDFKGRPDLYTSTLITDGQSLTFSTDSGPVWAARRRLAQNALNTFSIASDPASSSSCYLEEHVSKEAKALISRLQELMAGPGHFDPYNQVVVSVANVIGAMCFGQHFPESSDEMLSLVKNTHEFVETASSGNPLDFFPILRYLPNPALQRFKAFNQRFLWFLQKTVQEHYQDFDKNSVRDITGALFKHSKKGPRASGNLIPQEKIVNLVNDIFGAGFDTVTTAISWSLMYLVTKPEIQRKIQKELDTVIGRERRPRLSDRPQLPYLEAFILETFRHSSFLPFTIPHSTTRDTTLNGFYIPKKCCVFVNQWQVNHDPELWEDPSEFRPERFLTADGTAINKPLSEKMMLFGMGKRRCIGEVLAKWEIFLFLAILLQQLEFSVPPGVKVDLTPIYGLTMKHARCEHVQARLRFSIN

[3] = 1 LipoCol Forte capsule, multiple doses one LipoCol Forte capsule BID for 5 days
[4] = 1 LipoCol Forte capsule, single dose one LipoCol Forte capsule
[5] = 1 LipoCol Forte capsule, healthy subjects, multiple doses one LipoCol Forte capsule BID for 5 days
[6] = 1 LipoCol Forte capsule, healthy subjects, single dose one LipoCol Forte capsule
[7] = 2 LipoCol Forte capsules, single dose two LipoCol Forte capsules
[8] = 2 LipoCol Forte capsules, healthy subjects, single dose two LipoCol Forte capsules
[9] = 4 LipoCol Forte capsules, single dose four LipoCol Forte capsules
[10] = 4 LipoCol Forte capsules, healthy subjects, single dose four LipoCol Forte capsules
[11] = healthy subjects, single dose one LipoCol Forte capsule with coadministration of 600 mg gemfibrozil twice daily, mean ± SD, n = 13
[12] = human, plasma, oral, 1 LipoCol Forte capsule

T1 sequence (P10635 whole entry): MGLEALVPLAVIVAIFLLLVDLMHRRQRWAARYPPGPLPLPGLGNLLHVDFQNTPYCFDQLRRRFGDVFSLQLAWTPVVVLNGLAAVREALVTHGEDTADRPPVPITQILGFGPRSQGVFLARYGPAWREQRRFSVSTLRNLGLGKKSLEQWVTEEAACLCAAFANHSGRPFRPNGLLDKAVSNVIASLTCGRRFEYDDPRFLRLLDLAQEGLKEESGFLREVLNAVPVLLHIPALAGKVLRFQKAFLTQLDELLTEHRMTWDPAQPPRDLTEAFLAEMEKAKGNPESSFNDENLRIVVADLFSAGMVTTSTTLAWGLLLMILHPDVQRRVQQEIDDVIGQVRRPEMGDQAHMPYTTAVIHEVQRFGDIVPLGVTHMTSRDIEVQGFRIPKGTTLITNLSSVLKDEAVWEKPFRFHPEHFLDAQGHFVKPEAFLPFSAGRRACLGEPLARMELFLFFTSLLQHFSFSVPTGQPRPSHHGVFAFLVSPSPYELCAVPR

CC[C@H](C)C(=O)O[C@H]1C[C@@H](C)C=C2C=C[C@H](C)[C@H](CC[C@@H]3C[C@@H](O)CC(=O)O3)[C@H]21 [Pure lovastatin, lovastatin, reference compound]
CL/F ([1]; healthy subjects, multiple doses one LipoCol Forte capsule BID for 5 days): 1339.5 ± 763.3 L/h
CL/F ([1]; healthy subjects, single dose four LipoCol Forte capsules): 1128.8 ± 624.4 L/h
CL/F ([1]; healthy subjects, single dose one LipoCol Forte capsule): 941.7 ± 453.5 L/h
CL/F ([1]; healthy subjects, single dose two LipoCol Forte capsules): 994.5 ± 548.8 L/h
Accumulation with multiple dosing ([1]; healthy subjects, one LipoCol Forte capsule twice daily for 5 days): no accumulation
Dose linearity of pharmacokinetic properties (AUC, Cmax) ([1]; healthy subjects, single dose of 1, 2 or 4 LipoCol Forte capsules): linear
AUC(0-t) [1, 3]: 5.22 ± 2.6 ng·h/mL
AUC(0-t) [1, 4]: 6.74 ± 3.27 ng·h/mL
AUC(0-inf) [1, 5]: 5.71 ± 2.68 ng·h/mL
AUC(0-inf) [1, 6]: 7.47 ± 3.44 ng·h/mL
Cmax [1, 5]: 1.41 ± 0.69 ng/mL
Cmax [1, 6]: 1.61 ± 0.8 ng/mL
MRT [1, 5]: 4.81 ± 1.24 h
MRT [1, 6]: 5.55 ± 1.98 h
half-life [1, 3]: 1.93 ± 0.43 h
half-life [1, 4]: 2.36 ± 0.66 h
Tmax [1, 5]: 3.39 ± 1.38 h
Tmax [1, 6]: 3.46 ± 1.28 h
Vd/F [1, 5]: 3570 ± 1800 L
Vd/F [1, 6]: 3080 ± 1330 L
AUC(0-t) [1, 7]: 13.4 ± 6.07 ng·h/mL
AUC(0-inf) [1, 8]: 14.4 ± 6.3 ng·h/mL
Cmax [1, 8]: 3.36 ± 1.81 ng/mL
MRT [1, 8]: 5.27 ± 1.42 h
half-life [1, 7]: 2.36 ± 0.68 h
Tmax [1, 8]: 3.29 ± 1.35 h
Vd/F [1, 8]: 3380 ± 2050 L
AUC(0-t) [1, 9]: 24.9 ± 14.2 ng·h/mL
AUC(0-inf) [1, 10]: 26.8 ± 15.4 ng·h/mL
Cmax [1, 10]: 5.7 ± 3.42 ng/mL
MRT [1, 10]: 5.51 ± 1.11 h
half-life [1, 9]: 2.42 ± 0.45 h
Tmax [1, 10]: 3.25 ± 0.78 h
Vd/F [1, 10]: 3860 ± 1960 L
IC50 (CYP2D6): > 50 µM
IC50 (CYP2B6): 15 ± 1.11 µM
IC50 at 20 min (CYP2B6; human, human liver microsomes, probe bupropion): 9 to 16 µM
Effect of concomitant gemfibrozil on pharmacokinetic parameters (AUC, Cmax) ([2]; healthy subjects, one LipoCol Forte capsule, gemfibrozil 600 mg twice daily): no significant effects
CL/F ([2]; healthy subjects, single dose one LipoCol Forte capsule alone, mean ± SD, n = 13): 1374.0 ± 782.6 L/h
CL/F [2, 11]: 1372.5 ± 763.8 L/h
Tmax [2, 11]: 3.00 ± 1.37 h
AUC(0-inf) [2, 12]: 5.68 ± 3.48 ng·h/mL
Cmax [2, 12]: 1.53 ± 1.45 ng/mL
MRT [2, 12]: 4.87 ± 1.28 h
Vd/F [2, 12]: 4000 ± 2600 L
half-life [2, 12]: 2.12 ± 0.7 h
AUC(0-t) ([2]; human, plasma, oral, 1 LipoCol Forte capsule, read-out: AUC0–12): 5 ± 3.29 ng·h/mL
Tmax ([2]; human, plasma, oral, 1 LipoCol Forte capsule, read-out: Tmax): 3.08 ± 1.17 h
IC50 (CYP1A2): > 100 µM
